Test: xn = mol fraction of the nth substance listed
Settings: 100 kPa

C[P+](c1ccccc1)(c1ccccc1)c1ccccc1.[Br-] + OCCO
viscosity [mPa·s]
Settings | 293.15 K | 298.15 K | 303.15 K | 308.15 K | 313.15 K | 318.15 K | 323.15 K
x1 = 0.1 | 45.5 | – | 27.4 | 22.37 | – | 15.1 | 12.6
x1 = 0.13 | 56.5 | 43.3 | 33.8 | 27.1 | 21.86 | 18.05 | 14.94
x1 = 0.17 | 74.7 | 55.7 | 43.5 | 34.5 | 27.3 | 21.01 | 17.81
x1 = 0.2 | 100.6 | 74.5 | 56.2 | 43.3 | 34 | 27.2 | 21.91
x1 = 0.25 | 148.7 | 106.7 | 78.9 | 60 | 46.4 | 36.4 | 29
x1 = 0.33 | 225 | 158 | – | 85.5 | – | 50.5 | 39.6

From a compilation of properties of binary mixtures (doi:10.1007/s10953-022-01241-4)
